Measured values published in patent US20170275287A1, “NOVEL N2, N4, N7, 6-TETRASUBSTITUTED PTERIDINE-2,4,7-TRIAMINE AND 2, 4, 6, 7-TETRASUBSTITUTED PTERIDINE COMPOUNDS AND METHODS OF SYNTHESIS AND USE THEREOF” (Janus Biotherapeutics, Inc., priority 2014, published 2017).

How the values were obtained:
[1] = tested on: M (non-selective) Muscarinic Receptor; experiment: Receptor cross-reactivity binding panel (CEREP)
Description: The receptor cross-reactivity profile is composed of 71 binding and 27 enzyme assays. The binding assay panel is broadly defined with roughly an equal number of selective, central and peripheral therapeutically relevant targets. The enzyme assay panel includes the most representative targets from diverse enzyme families with a particular focus on phosphatases and specific enzymes involved in cell cycle regulation. Assays where performed by CEREP, Seattle, Wash., with protocols similar to Cordeaux, Y. et al., 2004 Brit. J. Pharmacol., 143:705-714. JB6121 was tested for receptor cross reactivity at 10 μM for approximately 100 receptors and enzymes. Any % inhibition greater than 50% (IC50<10 μM) is highlighted below in Table 7.

[2] = Metabolic stability, human liver microsomes (CEREP); assay type: in vitro ADME
Experimental: (§1) Preliminary screening measures were conducted by CEREP. All values fall within acceptable limits (Table 5). Solubility assays where performed by CEREP, Seattle, Wash., according to Lipinski, C. A. et al., 1997, Adv. Drug Del. Rev., 46:3-26. Protein binding assays where performed by CEREP, Seattle, Wash., according to Banker, M. J. et al., 2003, J. Pharm. Sci., 92:967-974. Permeability assays where performed by CEREP, Seattle, Wash. according to Hildalgo, I. J., 1998, Gastroenterology, 96:736-749. Metabolic stability assays where performed by CEREP, Seattle, Wash., according to Obach, R. S. et al., 1997, J. Pharmacol. Exp. Ther., 283:46-58. P-glycoprotein inhibition assays where performed by CEREP, Seattle, Wash., according to Polli, J. W. et al., 2001, J. Pharm. Exp. Ther., 299:620-628. Cell viability assays where performed by CEREP, Seattle, Wash., according to Mosmann, T., 1983, J. Immunol. Met. 65:55-62. hERG automated patch clamp assays where performed by CEREP, Seattle, Wash., according to Mathes, C., 2006, Expert Opin. Ther. Targets, 10:230-241.

[3] = Protein binding, human plasma (CEREP); assay type: in vitro ADME; conditions: read-out: Protein Binding, Human Plasma, % bound (converted)
Experimental: as §1

[4] = 7-day non-GLP tox study, once daily oral gavage; assay type: in vivo, rats; conditions: for no-observed-effect level (NOEL): rats, 7 days oral
Experimental: A 7-day non-GLP tox study was performed in rats. Dosing was once daily by oral gavage. There were four dose groups; 0, 10, 30 and 100 mg/kg. The following parameters and end points were evaluated in this study: clinical signs, body weights, body weight changes, food consumption, clinical pathology parameters (hematology, coagulation, clinical chemistry, and urinalysis), toxicokinetic parameters, gross necropsy findings, organ weights, and histopathologic examinations.

## CN1CCN(c2nc(NCCN3CCOCC3)c3nc(Cl)c(NCCN4CCOCC4)nc3n2)CC1 [JB6121, 6-chloro-2-(4-methylpiperazin-1-yl)-N^4,N^7-bis(2-morpholinoethyl)pteridine-4,7-diamine]
[1]; 10 μM
  % Ligand Inhibition, M (non-selective) Muscarinic Receptor: 63.1%
[1]; most-likely, estimated from 10 μM result
  IC50: > 5 µM
[2]
  Metabolic Stability, Human Liver Microsomes at 60 min. % remaining: 75%
[3]
  fraction unbound: 0.13
[4]; both sexes, rat, in vivo, po
  NOAEL at 7 days: 100 mg/kg/day
[4]; rat, in vivo, 30 mg/kg/day
  hematopoiesis (spleen): increased incidence of hematopoiesis
  increase of mean spleen weights: at least 10%
[4]; rat, in vivo, 100 mg/kg/day
  hematopoiesis in the liver: slight increase in hematopoiesis
[4]; females
  no-observed-effect level (NOEL): 100 mg/kg/day
[4]; males
  no-observed-effect level (NOEL): 10 mg/kg/day
